pIC50: −log10 of the molar value.
Biological target: T1, human recombinant, purified wild type His-B-Raf protein kinase (Homo sapiens, UniProt P15056)
T1 construct: His
Assay: B-Raf In Vitro ELISA Assay
Format: biochemical
Settings: phosphorylation of MEK1; 2.5 nM B-Raf, 0.15 μM MEK1, 10 μM ATP; 1 hour preincubation at 25° C.
Description: B-Raf In Vitro ELISA Assay
Activity of human recombinant, purified wild type His-B-Raf protein kinase was determined in vitro using an enzyme-linked immunosorbent assay (ELISA) assay format, which measures phosphorylation of the B-Raf substrate, human recombinant, purified His-derived (detagged) MEK1. The reaction utilized 2.5 nM B-Raf, 0.15 μM MEK1 and 10 μM adenosine triphosphate (ATP) in 40 mM N-(2-hydroxyethyl)piperazine-N′-(2-ethanesulfonic acid hemisodium salt (HEPES), 5 mM 1,4-dithio-DL-threitol (DTT), 10 mM MgCl2, 1 mM ethylenediaminetetraacetic acid (EDTA) and 0.2 M NaCl (1×HEPES buffer), with or without compound at various concentrations, in a total reaction volume of 25 μl in 384 well plates. B-Raf and compound were preincubated in 1×HEPES buffer for 1 hour at 25° C. Reactions were initiated with addition of MEK1 and ATP in 1×HEPES buffer and incubated at 25° C. for 50 minutes and reactions stopped by addition of 10 μl 175 mM EDTA (final concentration 50 mM) in 1×HEPES buffer. 5 μl of the assay mix was then diluted 1:20 into 50 mM EDTA in 1×HEPES buffer, transferred to 384 well black high protein binding plates and incubated overnight at 4° C. Plates were washed in tris buffered saline containing 0.1% 5 Tween20 (TBST), blocked with 50 μl Superblock (Pierce) for 1 hour at 25° C., washed in TBST, incubated with 50 μl rabbit polyclonal anti-phospho-MEK antibody (Cell Signaling) diluted 1:1000 in TBS for 2 hours at 25° C., washed with TBST, incubated with 50 μl goat anti-rabbit horseradish peroxidase-linked antibody (Cell Signaling) diluted 1:2000 in TBS for 1 hour at 25° C. and washed with TBST. 50 μl of fluorogenic peroxidase substrate (Quantablu 10-Pierce) was added and following incubation for 45-60 minutes, 50 μl QuantabluSTOP (Pierce) was added. Blue fluorescent product was detected at excitation 325 and emission 420 using a TECAN Ultra plate reader. Data was graphed and IC50s calculated using Excel Fit (Microsoft).

T1 sequence (P15056 whole entry): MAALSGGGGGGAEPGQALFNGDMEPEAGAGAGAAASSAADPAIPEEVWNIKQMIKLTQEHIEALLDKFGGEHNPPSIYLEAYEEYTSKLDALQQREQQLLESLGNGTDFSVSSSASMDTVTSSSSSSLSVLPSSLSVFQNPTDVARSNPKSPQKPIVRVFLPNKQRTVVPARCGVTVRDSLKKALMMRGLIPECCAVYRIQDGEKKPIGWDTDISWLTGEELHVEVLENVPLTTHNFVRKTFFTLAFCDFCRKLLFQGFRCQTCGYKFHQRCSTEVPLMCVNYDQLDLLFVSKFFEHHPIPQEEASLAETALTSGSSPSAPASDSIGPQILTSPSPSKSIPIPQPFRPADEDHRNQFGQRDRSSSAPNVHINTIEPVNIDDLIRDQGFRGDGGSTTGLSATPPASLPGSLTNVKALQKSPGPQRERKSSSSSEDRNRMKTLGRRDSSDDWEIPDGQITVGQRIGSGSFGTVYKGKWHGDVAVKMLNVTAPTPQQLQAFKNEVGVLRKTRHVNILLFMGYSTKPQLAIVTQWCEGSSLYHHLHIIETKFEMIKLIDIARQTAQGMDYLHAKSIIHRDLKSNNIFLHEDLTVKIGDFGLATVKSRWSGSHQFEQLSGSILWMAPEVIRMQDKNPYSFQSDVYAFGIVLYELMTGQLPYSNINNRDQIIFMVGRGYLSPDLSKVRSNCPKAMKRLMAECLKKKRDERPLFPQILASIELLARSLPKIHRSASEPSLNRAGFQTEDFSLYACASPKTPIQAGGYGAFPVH

Compound | pIC50
COc1cc2ncnc(Nc3cc(NC(=O)c4cccc(C5(C#N)CCC5)c4)ccc3C)c2cc1OC [Example 7, 3-(1-Cyanocyclobutyl)-N-{3-[(6,7-dimethoxyquinazolin-4-yl)amino]-4-methylphenyl}benzamide] | 6.71
COc1cc2ncnc(Nc3cc(NC(=O)c4cc(C(F)(F)F)ccc4F)ccc3C)c2cc1OC [Example 15, N-{3-[(6,7-Dimethoxyquinazolin-4-yl)amino]-4-methylphenyl}-2-fluoro-5-(trifluoromethyl)benzamide] | 6.43
COc1cc2c(Nc3cc(NC(=O)c4cccc(C(C)(C)C#N)c4)ccc3C)ncnc2cc1OCc1ccccc1 [Example 5, N-(3-{[7-(Benzyloxy)-6-methoxyquinazolin-4-yl]amino}-4-methylphenyl)-3-(1-cyano-1-methylethyl)benzamide] | 5.96

Reference: patent publication US20080306096A1, “Quinazoline Derivatives, Process for Their Preparation and Their Use as Anti-Cancer Agents” (ASTRAZENECA AB, priority 2005, published 2008)
